Laboratory results from ChEMBL document CHEMBL5233221, “Celastrol: Progresses in structure-modifications, structure-activity relationships, pharmacology and toxicology” (Eur J Med Chem, 2020).
pIC50, pKi: −log10 of the molar value. ≈ marks a conversion by molar mass, not a printed value.

Legend:
Bel-7402 = assay: Antiproliferative activity against human Bel-7402 cells assessed as cell growth inhibition; format: functional, cell-based
[1] = Toxicity in wild-type Zebrafish embryos assessed as lethal effect; design: species or system Danio rerio; details: in vivo
HeLa = assay: Antiproliferative activity against human HeLa cells assessed as cell growth inhibition; format: functional, cell-based
[2] = Antiproliferative activity against human GLC-82 cells assessed as cell growth inhibition; format: functional, cell-based; details: GLC82
MKN-28 = assay: Antiproliferative activity against human MKN-28 cells assessed as cell growth inhibition; format: functional, cell-based
SW13 = assay: Antiproliferative activity against human SW13 cells assessed as cell growth inhibition; format: functional, cell-based
MKN-45 = assay: Antiproliferative activity against human MKN-45 cells assessed as cell growth inhibition; format: functional, cell-based
[3] = Antiproliferative activity against human Nasopharyngeal carcinoma cell line assessed as cell growth inhibition; format: functional, cell-based
U-937 = assay: Antiproliferative activity against human U-937 cells assessed as cell growth inhibition; format: functional, cell-based
A549 = assay: Antiproliferative activity against human A549 cells assessed as cell growth inhibition; format: functional, cell-based
[4] = Antiproliferative activity against dog CL-1 cells assessed as cell growth inhibition; format: functional, cell-based; details: Canis lupus familiaris
UMSCC1 = assay: Antiproliferative activity against human UMSCC1 cells assessed as cell growth inhibition; format: functional, cell-based
LP-1 = assay: Antiproliferative activity against human LP-1 cells assessed as cell growth inhibition; format: functional, cell-based
C3A = assay: Antiproliferative activity against human C3A cells assessed as cell growth inhibition; format: functional, cell-based
[5] = Toxicity in wild-type Zebrafish embryos measured after 48 hrs; design: species or system Danio rerio
RPMI-8226 [6] = assay: Antiproliferative activity against human RPMI-8226 cells assessed as cell growth inhibition; format: functional, cell-based
U2OS = assay: Antiproliferative activity against human U2OS cells assessed as cell growth inhibition; format: functional, cell-based
[7] = Antiproliferative activity against human KATO III stomach cancer cell line assessed as cell growth inhibition; format: functional, cell-based
[8] = Antiproliferative activity against human KU-7 cells assessed as cell growth inhibition; format: functional, cell-based; details: KU7
K562 = assay: Antiproliferative activity against human K562 cells assessed as cell growth inhibition; format: functional, cell-based
[9] = molecular target: UDP-glucuronosyltransferase 2B7 (Homo sapiens, UniProt P16662); assay: Binding affinity to UGT2B7 (unknown origin) assessed as inhibition constant
HCC827 = assay: Antiproliferative activity against human HCC827 cells assessed as cell growth inhibition; format: functional, cell-based
[10] = Antiproliferative activity against human SPCA1 cells assessed as cell growth inhibition; format: functional, cell-based
[11] = Antiproliferative activity against human MM1.R cells assessed as cell growth inhibition; format: functional, cell-based; details: MM.1R
RCC4 = assay: Antiproliferative activity against human RCC4 cells assessed as cell growth inhibition; format: functional, cell-based
LNCaP = assay: Antiproliferative activity against human LNCaP cells assessed as cell growth inhibition; format: functional, cell-based
SAOS-2 = assay: Antiproliferative activity against human SAOS-2 cells assessed as cell growth inhibition; format: functional, cell-based
Erysiphales [12] = assay: Antifungal activity against powdery mildew assessed as preventive effects at 100 ug/ml relative to control; format: functional; details: dose 100 µg/ml
Cytochrome P450 3A2 [13] = molecular target: T1, Cytochrome P450 3A2 (Rattus norvegicus, UniProt P05183); assay: Binding affinity to rat CYP3A2
NCI-H1975 [14] = assay: Antiproliferative activity against human NCI-H1975 cells assessed as cell growth inhibition; format: functional, cell-based
[15] = Antiproliferative activity against human 95-D cells assessed as cell growth inhibition; format: functional, cell-based
NCI-H1650 = assay: Antiproliferative activity against human NCI-H1650 cells assessed as cell growth inhibition; format: functional, cell-based
Kasumi 1 = assay: Antiproliferative activity against human Kasumi 1 cells assessed as cell growth inhibition; format: functional, cell-based
MG-63 = assay: Antiproliferative activity against human MG-63 cells assessed as cell growth inhibition; format: functional, cell-based
U-266 = assay: Antiproliferative activity against human U-266 cells assessed as cell growth inhibition; format: functional, cell-based
Cytochrome P450 3A2 [16] = molecular target: T1, Cytochrome P450 3A2; assay: Inhibition of rat CYP3A2
Cytochrome P450 1A2 [17] = molecular target: T2, Cytochrome P450 1A2 (Rattus norvegicus, UniProt P04799); assay: Inhibition of rat CYP1A2
MCF7 = assay: Antiproliferative activity against human MCF7 cells assessed as cell growth inhibition; format: functional, cell-based
[18] = Antiproliferative activity against human YCC-2 cells assessed as cell growth inhibition; format: functional, cell-based
Staphylococcus aureus = assay: Antibacterial activity against Staphylococcus aureus assessed as inhibition of bacterial growth; format: functional
Huh-7 = assay: Antiproliferative activity against human Huh-7 cells assessed as cell growth inhibition; format: functional, cell-based
MM1.S = assay: Antiproliferative activity against human MM1.S cells assessed as cell growth inhibition; format: functional, cell-based
[19] = Antiproliferative activity against human Renal cancer tumor cell line assessed as cell growth inhibition; format: functional, cell-based
NCI-H2228 = assay: Antiproliferative activity against human NCI-H2228 cells assessed as cell growth inhibition; format: functional, cell-based
SCC-4 = assay: Antiproliferative activity against human SCC-4 cells assessed as cell growth inhibition; format: functional, cell-based
KBM5 [20] = assay: Antiproliferative activity against human KBM5 cells assessed as cell growth inhibition; format: functional, cell-based
[21] = Toxicity in wild-type Zebrafish embryos measured after 72 hrs; design: species or system Danio rerio
RPMI-8226 [22] = assay: Antiproliferative activity against doxorubicin resistant human RPMI-8226 cells assessed as cell growth inhibition; format: functional, cell-based
SK-MEL-28 = assay: Antiproliferative activity against human SK-MEL-28 cells assessed as cell growth inhibition; format: functional, cell-based
[23] = Antiproliferative activity against human SKNO-1 cells assessed as cell growth inhibition; format: functional, cell-based
[24] = molecular target: UDP-glucuronosyltransferase 1A6 (Homo sapiens, UniProt P19224); assay: Binding affinity to UGT1A6 (unknown origin) assessed as inhibition constant
NCI-H1299 = assay: Antiproliferative activity against human NCI-H1299 cells assessed as cell growth inhibition; format: functional, cell-based
HepG2 = assay: Antiproliferative activity against human HepG2 cells assessed as cell growth inhibition; format: functional, cell-based
RPMI-8226 [25] = assay: Antiproliferative activity against bortezomib resistant human RPMI-8226 cells assessed as cell growth inhibition; format: functional, cell-based
NCI-H460 = assay: Antiproliferative activity against human NCI-H460 cells assessed as cell growth inhibition; format: functional, cell-based
Cytochrome P450 1A2 [26] = molecular target: T2, Cytochrome P450 1A2; assay: Binding affinity to rat CYP1A2
AGS = assay: Antiproliferative activity against human AGS cells assessed as cell growth inhibition; format: functional, cell-based
MDA-MB-231 = assay: Antiproliferative activity against human MDA-MB-231 cells assessed as cell growth inhibition; format: functional, cell-based
NCI-H1975 [27] = assay: Antiproliferative activity against gefitinib-resistant human NCI-H1975 cells assessed as cell growth inhibition; format: functional, cell-based
U-251 = assay: Antiproliferative activity against human U-251MG cells assessed as cell growth inhibition; format: functional, cell-based
Cytochrome P450 2C11 [28] = molecular target: T3, Cytochrome P450 2C11 (Rattus norvegicus, UniProt P08683); assay: Inhibition of rat Cyp2c11; format: ADME
NCI-H929 = assay: Antiproliferative activity against human NCI-H929 cells assessed as cell growth inhibition; format: functional, cell-based
HOS = assay: Antiproliferative activity against human HOS cells assessed as cell growth inhibition; format: functional, cell-based
Erysiphales [29] = assay: Antifungal activity against powdery mildew assessed as curative effects at 100 ug/ml relative to control; format: functional; details: dose 100 µg/ml
A2780 = assay: Antiproliferative activity against human A2780 cells assessed as cell growth inhibition; format: functional, cell-based
SK-OV-3 = assay: Antiproliferative activity against human SK-OV-3 cells assessed as cell growth inhibition; format: functional, cell-based
DU-145 = assay: Antiproliferative activity against human DU-145 cells assessed as cell growth inhibition; format: functional, cell-based
PC-3 = assay: Antiproliferative activity against human PC-3 cells assessed as cell growth inhibition; format: functional, cell-based
KBM5 [30] = assay: Antiproliferative activity against human KBM5 cells expressing Bcr-Abl harboring T315I mutant assessed as cell growth inhibition; format: functional, cell-based
Cytochrome P450 2C11 [31] = molecular target: T3, Cytochrome P450 2C11; assay: Binding affinity to rat Cyp2c11; format: ADME
[32] = test system: Colletotrichum gloeosporioides; assay: Antifungal activity against Glomerella cingulata assessed as inhibition of fungal growth at 10 ug/ml relative to control; format: functional; design: scale not given: the % may be the effect or the level left; details: dose 10 µg/ml
SCC-38 = assay: Antiproliferative activity against human SCC-38 cells assessed as cell growth inhibition; format: functional, cell-based
Mus musculus = assay: Antiinflammatory activity in po dosed asthmatic mouse model; format: functional
[33] = Antiproliferative activity against human U373 MG cells assessed as cell growth inhibition; format: functional, cell-based, U-373MG ATCC
Rhizoctonia solani = assay: Antifungal activity against Rhizoctonia solani assessed as inhibition of fungal growth at 10 ug/ml relative to control; format: functional; design: scale not given: the % may be the effect or the level left; details: dose 10 µg/ml
[34] = Antiproliferative activity against human 253J-BV cells assessed as cell growth inhibition; format: functional, cell-based
NSCLC = assay: Antiproliferative activity against human NSCLC cells assessed as cell growth inhibition; format: functional, cell-based

T1 sequence (P05183 whole entry): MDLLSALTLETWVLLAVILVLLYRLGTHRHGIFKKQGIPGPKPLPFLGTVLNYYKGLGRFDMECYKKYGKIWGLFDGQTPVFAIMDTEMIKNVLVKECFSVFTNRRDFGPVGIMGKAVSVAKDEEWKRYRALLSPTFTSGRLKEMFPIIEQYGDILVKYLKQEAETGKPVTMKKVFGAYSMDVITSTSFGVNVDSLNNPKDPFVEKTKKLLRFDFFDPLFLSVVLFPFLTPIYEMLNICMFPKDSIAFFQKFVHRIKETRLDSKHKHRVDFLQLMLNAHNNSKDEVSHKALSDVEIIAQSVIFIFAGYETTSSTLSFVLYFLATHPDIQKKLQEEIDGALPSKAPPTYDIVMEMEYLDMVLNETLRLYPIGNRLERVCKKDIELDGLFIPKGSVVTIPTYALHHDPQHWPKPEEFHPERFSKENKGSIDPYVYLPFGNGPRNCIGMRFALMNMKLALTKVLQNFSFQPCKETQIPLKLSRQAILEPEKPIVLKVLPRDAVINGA
T2 sequence (P04799 whole entry): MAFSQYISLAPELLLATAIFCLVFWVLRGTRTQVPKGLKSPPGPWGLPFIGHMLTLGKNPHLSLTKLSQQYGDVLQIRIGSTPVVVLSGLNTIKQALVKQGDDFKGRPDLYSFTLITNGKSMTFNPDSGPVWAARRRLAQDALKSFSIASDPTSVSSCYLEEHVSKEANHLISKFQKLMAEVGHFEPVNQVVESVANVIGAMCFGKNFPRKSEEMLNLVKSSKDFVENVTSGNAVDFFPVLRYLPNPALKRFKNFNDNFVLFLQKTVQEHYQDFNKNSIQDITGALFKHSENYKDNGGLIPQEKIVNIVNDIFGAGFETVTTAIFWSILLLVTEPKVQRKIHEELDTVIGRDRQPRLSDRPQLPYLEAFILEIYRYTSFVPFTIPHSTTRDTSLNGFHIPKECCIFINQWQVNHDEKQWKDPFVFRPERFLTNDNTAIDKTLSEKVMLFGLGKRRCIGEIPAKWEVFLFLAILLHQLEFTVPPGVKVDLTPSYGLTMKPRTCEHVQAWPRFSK
T3 sequence (P08683 whole entry): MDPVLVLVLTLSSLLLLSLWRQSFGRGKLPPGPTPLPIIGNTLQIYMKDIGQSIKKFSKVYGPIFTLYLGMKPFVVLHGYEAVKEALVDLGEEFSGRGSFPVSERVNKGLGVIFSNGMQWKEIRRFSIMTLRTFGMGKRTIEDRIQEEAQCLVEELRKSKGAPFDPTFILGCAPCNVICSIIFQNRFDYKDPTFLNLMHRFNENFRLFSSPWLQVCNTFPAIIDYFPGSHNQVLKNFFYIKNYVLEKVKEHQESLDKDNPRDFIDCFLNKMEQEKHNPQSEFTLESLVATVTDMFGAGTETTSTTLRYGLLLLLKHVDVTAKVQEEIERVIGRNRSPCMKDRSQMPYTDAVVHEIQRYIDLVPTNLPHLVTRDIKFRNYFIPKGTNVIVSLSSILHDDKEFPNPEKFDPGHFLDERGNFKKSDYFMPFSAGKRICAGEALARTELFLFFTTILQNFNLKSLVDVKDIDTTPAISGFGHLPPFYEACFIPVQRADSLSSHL
Chain of UDP-glucuronosyltransferase 2B7 (P16662 whole entry): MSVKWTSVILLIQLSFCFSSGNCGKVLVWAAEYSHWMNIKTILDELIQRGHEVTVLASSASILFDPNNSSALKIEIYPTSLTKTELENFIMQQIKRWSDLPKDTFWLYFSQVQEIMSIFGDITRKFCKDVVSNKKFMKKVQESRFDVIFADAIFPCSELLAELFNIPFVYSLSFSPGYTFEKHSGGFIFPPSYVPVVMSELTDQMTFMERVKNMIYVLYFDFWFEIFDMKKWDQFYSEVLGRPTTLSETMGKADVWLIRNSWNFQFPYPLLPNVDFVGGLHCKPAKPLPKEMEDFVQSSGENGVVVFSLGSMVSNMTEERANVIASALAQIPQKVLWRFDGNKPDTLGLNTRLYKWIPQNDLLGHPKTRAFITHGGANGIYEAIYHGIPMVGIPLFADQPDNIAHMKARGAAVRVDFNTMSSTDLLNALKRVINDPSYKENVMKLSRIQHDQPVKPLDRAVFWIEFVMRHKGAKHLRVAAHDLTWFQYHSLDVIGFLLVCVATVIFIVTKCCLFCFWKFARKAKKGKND
Chain of UDP-glucuronosyltransferase 1A6 (P19224 whole entry): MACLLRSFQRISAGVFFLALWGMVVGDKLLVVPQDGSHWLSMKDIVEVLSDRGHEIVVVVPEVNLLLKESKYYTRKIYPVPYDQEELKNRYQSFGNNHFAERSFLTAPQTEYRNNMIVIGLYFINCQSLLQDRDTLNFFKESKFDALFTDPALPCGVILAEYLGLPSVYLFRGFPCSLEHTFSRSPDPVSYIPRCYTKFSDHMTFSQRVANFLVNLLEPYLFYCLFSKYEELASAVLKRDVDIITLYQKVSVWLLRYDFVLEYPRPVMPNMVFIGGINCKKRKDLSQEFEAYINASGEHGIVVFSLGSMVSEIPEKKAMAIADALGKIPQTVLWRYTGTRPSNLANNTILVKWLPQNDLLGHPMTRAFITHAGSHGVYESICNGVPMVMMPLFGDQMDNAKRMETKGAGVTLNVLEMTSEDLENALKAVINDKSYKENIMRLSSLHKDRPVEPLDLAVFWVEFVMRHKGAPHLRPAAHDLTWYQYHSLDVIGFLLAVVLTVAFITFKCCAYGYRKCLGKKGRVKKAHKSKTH

In the case of `COC(=O)[C@]1(C)CC[C@]2(C)CC[C@]3(C)C4=CC(c5cn(C)c6cc(Cl)ccc56)c5c(cc(OC)c(OC)c5C)[C@]4(C)CC[C@@]3(C)[C@@H]2C1` (stereo partly drawn), the pIC50 (Bel-7402) was 8.00.

In the case of `COC(=O)[C@]1(C)CC[C@]2(C)CC[C@]3(C)C4=CC(c5c[nH]c6cc(C)ccc56)c5c(cc(OC)c(OC)c5C)[C@]4(C)CC[C@@]3(C)[C@@H]2C1` (stereo partly drawn), the pIC50 (Bel-7402) was 7.70.

In the case of `CC1=C(O)C(=O)C=C2C1=CC=C1[C@@]2(C)CC[C@@]2(C)[C@@H]3C[C@](C)(C(=O)O)CC[C@]3(C)CC[C@]12C` [CELASTROL], the LC50 [1] was 1400 nM, the pIC50 (HeLa) was 5.72 and the pIC50 [2] was 5.97. For the same molecule, the pIC50 (MKN-28) was 5.64, the pIC50 (SW13) was 7.00 and the pIC50 (MKN-45) was 5.47. It also gave a pIC50 [3] of 6.00, a pIC50 (U-937) of 5.70 and a pIC50 (A549) of 5.70. It also gave a pIC50 [4] of 5.81, a pIC50 (UMSCC1) of 6.12 and a pIC50 (LP-1) of 6.06. It also gave a pIC50 (C3A) of 5.44, an EC50 at 48 h [5] of 900 nM and a pIC50 (RPMI-8226 [6]) of 6.28. The pIC50 (U2OS) was 5.68, the pIC50 [7] was 6.27 and the pIC50 [8] was 5.95. It also gave a pIC50 (K562) of 6.40, a pKi [9] of 7.35 and a pIC50 (HCC827) of 5.89. The pIC50 [10] was 5.74, the pIC50 [11] was 6.28 and the pIC50 (RCC4) was 5.73. The pIC50 (LNCaP) was 5.75, the pIC50 (SAOS-2) was 5.98 and the Activity (Erysiphales [12]) was 80.5%. The pKi (Cytochrome P450 3A2 [13]) was 4.85, the pIC50 (NCI-H1975 [14]) was 5.78 and the pIC50 [15] was 5.74. For the same molecule, the pIC50 (NCI-H1650) was 6.10, the pIC50 (Kasumi 1) was 5.66 and the pIC50 (MG-63) was 5.71. The pIC50 (U-266) was 6.33, the pIC50 (Cytochrome P450 3A2 [16]) was 4.63 and the pIC50 (Cytochrome P450 1A2 [17]) was 4.28. It also gave a pIC50 (MCF7) of 5.80, a pIC50 [18] of 6.30 and an MIC (Staphylococcus aureus) of 0.5 µg/mL (≈ 1.11 µM). It also gave a pIC50 (Huh-7) of 5.33, a pIC50 (MM1.S) of 6.20 and a pIC50 [19] of 5.36. For the same molecule, the pIC50 (NCI-H2228) was 5.71, the pIC50 (SCC-4) was 5.55 and the pIC50 (KBM5 [20]) was 6.30. For the same molecule, the EC50 at 72 h [21] was 700 nM, the pIC50 (RPMI-8226 [22]) was 6.28 and the pIC50 (SK-MEL-28) was 5.76. The pIC50 [23] was 5.89, the pKi [24] was 6.31 and the pIC50 (NCI-H1299) was 5.83. It also gave a pIC50 (HepG2) of 5.62, a pIC50 (RPMI-8226 [25]) of 6.14 and a pIC50 (NCI-H460) of 5.66. The pKi (Cytochrome P450 1A2 [26]) was 4.41, the pIC50 (AGS) was 6.60 and the pIC50 (MDA-MB-231) was 6.17. For the same molecule, the pIC50 (NCI-H1975 [27]) was 6.22, the pIC50 (U-251) was 6.16 and the pIC50 (Cytochrome P450 2C11 [28]) was 4.99. For the same molecule, the pIC50 (NCI-H929) was 6.51, the pIC50 (HOS) was 5.59 and the Activity (Erysiphales [29]) was 45.4%. For the same molecule, the pIC50 (A2780) was 5.68, the pIC50 (SK-OV-3) was 5.64 and the pIC50 (DU-145) was 5.83. For the same molecule, the pIC50 (PC-3) was 5.82, the pIC50 (KBM5 [30]) was 6.28 and the pKi (Cytochrome P450 2C11 [31]) was 5.15. For the same molecule, the Activity [32] was 62.6%, the pIC50 (SCC-38) was 5.77 and the LD50 (Mus musculus) was 20.5 mg/kg. For the same molecule, the pIC50 [33] was 5.70, the Activity (Rhizoctonia solani) was 62.6% and the pIC50 [34] was 6.03. For the same molecule, the pIC50 (NSCLC) was 5.83.
